Experiments:
c-Src(1-530) = c-Src(1-530) (Homo sapiens (Human), UniProt P12931); experiment: Kinase inhibition assay (KinaseProfiler, 33P-ATP); conditions: c-Src(1-530); ATP at Km
MDA-MB-435 = experiment: Cell proliferation inhibition assay (MTT); assay type: cell-based, human; conditions: Homo sapiens; MDA-MB-435; MTT, 72 hours; read-out: Proliferative inhibitory activity MDA-MB-435 (IC50 class)
MDA-MB-231 = experiment: Cell proliferation inhibition assay (MTT); assay type: cell-based, human; conditions: Homo sapiens; MDA-MB-231; MTT, 72 hours; read-out: Proliferative inhibitory activity MDA-MB-231 (IC50 class)

Chain of c-Src(1-530) (P12931 whole entry, looked up): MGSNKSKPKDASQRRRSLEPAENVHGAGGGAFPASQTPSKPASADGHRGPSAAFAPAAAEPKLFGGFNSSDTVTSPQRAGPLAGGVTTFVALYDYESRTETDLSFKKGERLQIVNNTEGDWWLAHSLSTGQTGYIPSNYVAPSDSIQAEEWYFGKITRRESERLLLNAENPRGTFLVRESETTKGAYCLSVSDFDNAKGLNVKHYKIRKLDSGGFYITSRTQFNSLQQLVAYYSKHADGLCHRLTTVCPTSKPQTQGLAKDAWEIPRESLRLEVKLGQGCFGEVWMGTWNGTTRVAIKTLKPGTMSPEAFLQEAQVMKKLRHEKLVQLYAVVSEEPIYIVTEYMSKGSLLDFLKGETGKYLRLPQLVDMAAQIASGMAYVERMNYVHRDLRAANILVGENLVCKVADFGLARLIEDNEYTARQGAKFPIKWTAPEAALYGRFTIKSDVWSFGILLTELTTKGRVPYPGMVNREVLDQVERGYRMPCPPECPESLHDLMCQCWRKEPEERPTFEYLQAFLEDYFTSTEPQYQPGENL

Structure (SMILES) | IC50 (c-Src(1-530)) | IC50 (MDA-MB-435) | IC50 (MDA-MB-231)
CCc1ccc(C(=O)Nc2ccc(CN3CCN(C)CC3)c(C(F)(F)F)c2)cc1C#Cc1nn(CC)c2ncnc(N)c12 [Compound 10] | 83 nM | > 1000 nM | 100 to 500 nM
Cc1cn(-c2cc(NC(=O)c3ccc(C)c(C#Cc4nn(C(C)C)c5ncnc(N)c45)c3)cc(C(F)(F)F)c2)cn1 [Compound 12] | 139 nM | > 1000 nM | > 1000 nM
Cc1ccc(C(=O)Nc2cc(CN3CCN(C)CC3)cc(C(F)(F)F)c2)cc1C#Cc1nn(C(C)C)c2ncnc(N)c12 [Compound 13] | 11 nM | 100 to 500 nM | < 100 nM
Cc1ccc(C(=O)Nc2cccc(C(F)(F)F)c2)cc1C#Cc1nn(C(C)C)c2ncnc(N)c12 [Compound 14] | 3 nM | > 1000 nM | 100 to 500 nM
Cc1ccc(C(=O)Nc2ccc(CN3CCN(C)CC3)cc2)cc1C#Cc1nn(C(C)C)c2ncnc(N)c12 [Compound 17] | 4 nM | > 1000 nM | 100 to 500 nM
Cc1ccc(NC(=O)c2cccc(C(F)(F)F)c2)cc1C#Cc1nn(C(C)C)c2ncnc(N)c12 [Compound 18] | 4 nM | 100 to 500 nM | < 100 nM
CCn1nc(C#Cc2cc(C(=O)Nc3ccc(CN4CCN(C)CC4)c(C(F)(F)F)c3)ccc2OC)c2c(N)ncnc21 [Compound 24] | 59 nM | > 1000 nM | 100 to 500 nM
CCn1nc(C#Cc2cc(C(=O)Nc3ccc(CN4CCN(C)CC4)c(C(F)(F)F)c3)ccc2O)c2c(N)ncnc21 [Compound 25] | 3190 nM | > 1000 nM | > 1000 nM
Cc1ccc(NC(=O)c2ccc(Cl)c(C(F)(F)F)c2)cc1C#Cc1nn(CC2CCN(C)CC2)c2ncnc(N)c12 [Compound 79] |  | 500 to 1000 nM | < 100 nM
Cc1ccc(NC(=O)c2ccc(Cl)c(C(F)(F)F)c2)cc1C#Cc1nn(CC(=O)N2CCOCC2)c2ncnc(N)c12 [Compound 80] |  | > 1000 nM | < 100 nM
Cc1ccc(NC(=O)c2ccc(Cl)c(C(F)(F)F)c2)cc1C#Cc1nn(C2CCN(S(C)(=O)=O)CC2)c2ncnc(N)c12 [Compound 81] |  | 100 to 500 nM | < 100 nM
Cc1ccc(NC(=O)c2ccc(Cl)c(C(F)(F)F)c2)cc1C#Cc1nn(C[C@@H](C)CO)c2ncnc(N)c12 [Compound 82] |  | 100 to 500 nM | < 100 nM
Cc1ccc(NC(=O)c2ccc(Cl)c(C(F)(F)F)c2)cc1C#Cc1nn(C[C@H](C)CO)c2ncnc(N)c12 [Compound 83] |  | 100 to 500 nM | < 100 nM
Cc1ccc(NC(=O)c2ccc(Cl)c(C(F)(F)F)c2)cc1C#Cc1nn([C@@H]2CCN(S(C)(=O)=O)C2)c2ncnc(N)c12 [Compound 84] |  | 100 to 500 nM | < 100 nM
Cc1ccc(NC(=O)c2ccc(Cl)c(C(F)(F)F)c2)cc1C#Cc1nn([C@@H]2CCN(C)C2)c2ncnc(N)c12 [Compound 85] |  | > 1000 nM | < 100 nM
Cc1ccc(NC(=O)c2ccc(Cl)c(C(F)(F)F)c2)cc1C#Cc1nn(C2CCCN(C(=O)[C@H](C)O)C2)c2ncnc(N)c12 (stereo partly shown) [Compound 86] |  | > 1000 nM | < 100 nM
Cc1ccc(NC(=O)c2ccc(Cl)c(C(F)(F)F)c2)cc1C#Cc1nn(C2CCCN(C(=O)[C@@H](C)O)C2)c2ncnc(N)c12 (stereo partly shown) [Compound 87] |  | > 1000 nM | < 100 nM

Structure (SMILES) | IC50 (c-Src(1-530)) | IC50 (MDA-MB-435) | IC50 (MDA-MB-231)
Cc1ccc(NC(=O)c2ccc(Cl)c(C(F)(F)F)c2)cc1C#Cc1nn([C@@H]2CCCN(C(=O)[C@@H](C)O)C2)c2ncnc(N)c12 [Compound 88] |  | 100 to 500 nM | < 100 nM
Cc1ccc(NC(=O)c2ccc(Cl)c(C(F)(F)F)c2)cc1C#Cc1nn([C@@H]2CCCN(C)C2)c2ncnc(N)c12 [Compound 89] |  | 100 to 500 nM | < 100 nM
Cc1ccc(NC(=O)c2ccc(Cl)c(C(F)(F)F)c2)cc1C#Cc1nn([C@@H]2CCCN(S(C)(=O)=O)C2)c2ncnc(N)c12 [Compound 90] |  | 500 to 1000 nM | < 100 nM
Cc1ccc(NC(=O)c2ccc(Cl)c(C(F)(F)F)c2)cc1C#Cc1nn(C2CCCN(S(C)(=O)=O)C2)c2ncnc(N)c12 (stereo not shown) [Compound 91] |  | 100 to 500 nM | < 100 nM
Cc1ccc(NC(=O)c2ccc(Cl)c(C(F)(F)F)c2)cc1C#Cc1nn(C2CCCN(C)C2)c2ncnc(N)c12 (stereo not shown) [Compound 92] |  | 100 to 500 nM | < 100 nM
Cc1ccc(NC(=O)c2nc(C(C)(C)C)cs2)cc1C#Cc1nn(CC2CCN(C)C2)c2ncnc(N)c12 (stereo not shown) [Compound 94] |  | 100 to 500 nM | 100 to 500 nM
Cc1ccc(NC(=O)c2nc(C(C)(C)C)cs2)cc1C#Cc1nn(CC2CCN(C)CC2)c2ncnc(N)c12 [Compound 96] |  | 100 to 500 nM | 100 to 500 nM
Cc1ccc(NC(=O)c2nc(C(C)(C)C)cs2)cc1C#Cc1nn([C@@H]2CCN(C)C2)c2ncnc(N)c12 [Compound 97] |  | 100 to 500 nM | 100 to 500 nM
Cc1ccc(NC(=O)c2ccc(C)c(C(F)(F)F)c2)cc1C#Cc1nn(C[C@@H](C)CO)c2ncnc(N)c12 [Compound 99] |  | 100 to 500 nM | < 100 nM
CCNc1ncnc2c1c(C#Cc1cc(C(=O)Nc3cccc(C(F)(F)F)c3)ccc1C)nn2CC [Compound 104] |  | 100 to 500 nM | 100 to 500 nM
Cc1ccc(C(=O)Nc2cccc(C(F)(F)F)c2)cc1C#Cc1nn(C[C@@H](C)CO)c2ncnc(N)c12 [Compound 105] |  | 100 to 500 nM | < 100 nM
Cc1ccc(C(=O)Nc2cccc(C(F)(F)F)c2)cc1C#Cc1nn(CC2CCN(C)C2)c2ncnc(N)c12 (stereo not shown) [Compound 108] |  | 100 to 500 nM | < 100 nM
Cc1ccc(NC(=O)c2cccc(C(F)(F)F)c2)cc1C#Cc1nn(C[C@H](C)CO)c2ncnc(N)c12 [Compound 111] |  | < 100 nM | < 100 nM
Cc1ccc(NC(=O)c2ccc(C)c(C(F)(F)F)c2)cc1C#Cc1nn(CC2CCN(C)CC2)c2ncnc(N)c12 [Compound 115] |  | 100 to 500 nM | < 100 nM
Cc1ccc(NC(=O)c2ccc(C)c(C(F)(F)F)c2)cc1C#Cc1nn([C@@H]2CCN(C)C2)c2ncnc(N)c12 [Compound 116] |  | 100 to 500 nM | 100 to 500 nM
Cc1ccc(NC(=O)c2cccc(C(C)(C)C)c2)cc1C#Cc1nn([C@H]2CC[C@H](O)CC2)c2ncnc(N)c12 [Compound 118] |  | < 100 nM | < 100 nM
CCn1nc(C#Cc2cc(C(=O)Nc3cccc(C(F)(F)F)c3)ccc2C)c2c(N)ncnc21 [Compound 119] |  | 100 to 500 nM | 100 to 500 nM

Continued, values first:

IC50 (c-Src(1-530)) | IC50 (MDA-MB-435) | IC50 (MDA-MB-231) | Structure (SMILES)
9 nM | < 100 nM | < 100 nM | Cc1ccc(C(=O)Nc2ccc(CN3CCN(C)CC3)c(C(F)(F)F)c2)cc1C#Cc1nn(C2CCC2)c2ncnc(N)c12 [Compound 6]
19 nM | < 100 nM | < 100 nM | Cc1ccc(C(=O)Nc2ccc(CN3CCN(C)CC3)c(C(F)(F)F)c2)cc1C#Cc1nn(C2CCCC2)c2ncnc(N)c12 [Compound 7]
7 nM | < 100 nM | < 100 nM | Cc1ccc(C(=O)Nc2ccc(CN3CCN(C)CC3)c(C(F)(F)F)c2)cc1C#Cc1nn(C)c2ncnc(N)c12 [Compound 8]
15 nM | < 100 nM | 100 to 500 nM | CC(C)n1nc(C#Cc2cc(C(=O)Nc3ccc(CN4CCN(C)CC4)c(C(F)(F)F)c3)ccc2Cl)c2c(N)ncnc21 [Compound 9]
10 nM | < 100 nM | 500 to 1000 nM | CC(C)n1nc(C#Cc2cccc(C(=O)Nc3ccc(CN4CCN(C)CC4)c(C(F)(F)F)c3)c2)c2c(N)ncnc21 [Compound 11]
7 nM | < 100 nM | < 100 nM | Cc1ccc(NC(=O)c2ccc(CN3CCN(C)CC3)c(C(F)(F)F)c2)cc1C#Cc1nn(C(C)C)c2ncnc(N)c12 [Compound 16]
8 nM | < 100 nM | < 100 nM | COCn1nc(C#Cc2cc(C(=O)Nc3ccc(CN4CCN(C)CC4)c(C(F)(F)F)c3)ccc2C)c2c(N)ncnc21 [Compound 19]
11 nM | < 100 nM | < 100 nM | CCn1nc(C#Cc2cc(C(=O)Nc3ccc(CN4CCN(C)CC4)c(C(F)(F)F)c3)ccc2Cl)c2c(N)ncnc21 [Compound 26]
5 nM | < 100 nM | < 100 nM | CCn1nc(C#Cc2cccc(C(=O)Nc3ccc(CN4CCN(C)CC4)c(C(F)(F)F)c3)c2)c2c(N)ncnc21 [Compound 29]
 | < 100 nM | 100 to 500 nM | Cc1ccc(NC(=O)c2nc(C(C)(C)C)cs2)cc1C#Cc1nn(C[C@@H](C)CO)c2ncnc(N)c12 [Compound 95]
 | < 100 nM | < 100 nM | Cc1ccc(NC(=O)c2ccc(C)c(C(F)(F)F)c2)cc1C#Cc1nn(CC2CCN(C)C2)c2ncnc(N)c12 (stereo not shown) [Compound 98]
 | < 100 nM | < 100 nM | Cc1ccc(NC(=O)c2cccc(C(F)(F)F)c2)cc1C#Cc1nn(C[C@@H](C)CO)c2ncnc(N)c12 [Compound 101]
 | < 100 nM | < 100 nM | CCn1nc(C#Cc2cc(NC(=O)c3ccc(CN4CCN(C)CC4)c(C(F)(F)F)c3)ccc2C)c2c(N)ncnc21 [Compound 102]
 | < 100 nM | < 100 nM | Cc1ccc(C(=O)Nc2cccc(C(F)(F)F)c2)cc1C#Cc1nn([C@H]2CC[C@H](O)CC2)c2ncnc(N)c12 [Compound 103]
 | < 100 nM | < 100 nM | Cc1ccc(C(=O)Nc2cccc(C(F)(F)F)c2)cc1C#Cc1nn(C[C@H](C)CO)c2ncnc(N)c12 [Compound 106]
 | < 100 nM | < 100 nM | Cc1ccc(C(=O)Nc2cccc(C(F)(F)F)c2)cc1C#Cc1nn([C@@H]2CCN(C)C2)c2ncnc(N)c12 [Compound 107]
 | < 100 nM | < 100 nM | Cc1ccc(C(=O)Nc2cccc(C(F)(F)F)c2)cc1C#Cc1nn(CC2CCN(C)CC2)c2ncnc(N)c12 [Compound 109]
 | < 100 nM | < 100 nM | Cc1ccc(NC(=O)c2ccc(C)c(C(F)(F)F)c2)cc1C#Cc1nn(C[C@H](C)CO)c2ncnc(N)c12 [Compound 110]

From patent US10266537B2, “3-acetylenyl-pyrazole-pyrimidine derivative, and preparation method therefor and uses thereof” (Si Chuan University, priority 2015, dated 2019)
